{"source": "paper PMC11203978", "about": "“Discovery of Di(het)arylmethane and Dibenzoxanthene Derivatives as Potential Anticancer Agents” (International Journal of Molecular Sciences, 2024)", "key": {"[1]": {"system": "HuTu 80 cells", "assay": "Intracellular ROS, CellROX Deep Red flow cytometry", "format": "cell-based, human", "conditions": "IC50/2 and IC50", "method": "The apoptosis via the mitochondrial pathway also increases the production of reactive oxygen species (ROS). As mitochondria itself becomes the target of ROS, an increase in their production disrupts mitochondrial functions and culminates in irreversible cell damage. Therefore, the effect of lead compounds 6a and 5a at IC50/2 and IC50 concentrations on ROS production in HuTu 80 cells was evaluated using flow cytometry. […] Such an effect is not observed for intact cells in the presence of both compounds, indicating an increase in ROS production in cancer tissues.\nDetection of Intracellular ROS. HuTU 80 cells were incubated with lead compounds at concentrations of IC50/2 and IC50 for 48 h. ROS generation was investigated using flow cytometry assay and CellROX® Deep Red flow cytometry kit. For this purpose, […] cells were harvested at 2000 rpm for 5 min and then washed twice with ice-cold PBS, followed by resuspension in 0.1 mL of medium without FBS, to which was added 0.2 μL of CellROX® Deep Red, which was followed by incubation at 37 °C for 30 min. The cells were washed three times and suspended in PBS. After that, the production of ROS in the cells was immediately monitored using flow cytometer (Guava easy Cyte, MERCK, Rahway, NJ, USA)."}, "[2]": {"system": "PA-1", "assay": "MTT cytotoxicity, PA-1", "format": "cell-based", "conditions": "Homo sapiens, read-out: IC50 (µM) Cancer Cell Lines PA-1", "text": "(§1) Cells and Materials. For the experiments, we used tumor cell cultures M-HeLa clone 11 (epithelioid carcinoma of the cervix, subline HeLa, clone M-HeLa), HuTu 80, human duodenal adenocarcinoma, Hep-2, human epithelial cells, SH-SY5Y, human neuroblast-like cells, A549, human lung adenocarcinoma, PA-1, human ovarian teratocarcinoma and MCF-7, a human mammary ductal adenocarcinoma from the collection of the Institute of Cytology, Russian Academy of Sciences (St. Petersburg, Russia); human liver cells (Chang liver) were from the collection and the Research Institute of Virology of the Russian Academy of Medical Sciences (Moscow, Russia).\n(§2) MTT Assay. The cytotoxic effect on cells was determined using the colorimetric method of cell proliferation—the MTT test. NADP-H-dependent cellular oxidoreductase enzymes can, under certain conditions, reflect the number of viable cells. These enzymes reduce the tetrazolium dye (MTT) 3-(4,5-dimethylthiazol-2-yl)-2,5-diphenyl-tetrazolium bromide to insoluble blue-violet formazan, which crystallizes inside the cell. The amount of formed formazan is proportional to the number of cells with active metabolism. […] Optical density was recorded at 540 nm on an Invitrologic microplate reader (Novosibirsk, Russia). […]\n(§3) Statistical analysis. The IC50 values were calculated using the MLA–Quest Graph™ IC50 Calculator (AAT Bioquest, Inc., Sunnyvale, CA, USA), 14 February 2022. […]"}, "[3]": {"system": "SH-SY5Y", "assay": "MTT cytotoxicity, SH-SY5Y", "format": "cell-based", "conditions": "Homo sapiens, read-out: IC50 (µM) Cancer Cell Lines SH-SY5Y", "text": "as §1, §2, §3"}, "[4]": {"system": "Hep-2", "assay": "MTT cytotoxicity, Hep-2", "format": "cell-based", "conditions": "Homo sapiens, read-out: IC50 (µM) Cancer Cell Lines Hep-2", "text": "as §1, §2, §3"}, "[5]": {"system": "A549", "assay": "MTT cytotoxicity, A549", "format": "cell-based", "conditions": "Homo sapiens, read-out: IC50 (µM) Cancer Cell Lines A549", "text": "as §1, §2, §3"}}, "data": [{"smiles": "O=C(C[P+](c1ccccc1)(c1ccccc1)c1ccccc1)NCCC1c2c(ccc3ccccc23)Oc2ccc3ccccc3c21", "note": "[Compound 6a]", "values": [{"measurement": "ROS production, CellROX Deep Red fluorescence intensity (in words)", "setting": "[1]", "value": "significant reliable increase"}, {"measurement": "IC50", "setting": "[2]", "value": "11.2 ± 1.36", "unit": "µM"}, {"measurement": "IC50", "setting": "[3]", "value": "10.9 ± 0.23", "unit": "µM"}, {"measurement": "IC50", "setting": "[4]", "value": "2.34 ± 0.01", "unit": "µM"}, {"measurement": "IC50", "setting": "[5]", "value": "5.47 ± 0.07", "unit": "µM"}]}]}
